Data published in patent US20210317134A1, “UBIQUITIN-SPECIFIC-PROCESSING PROTEASE 7 (USP7) MODULATORS AND USES THEREOF” (RAPT THERAPEUTICS, INC., priority 2019, published 2021).

Molecular target: USP7 (Homo sapiens, UniProt Q93009)
Test: USP7 inhibitory potency (Table 1)
Format: biochemical

Sequence of USP7 (Q93009 whole entry): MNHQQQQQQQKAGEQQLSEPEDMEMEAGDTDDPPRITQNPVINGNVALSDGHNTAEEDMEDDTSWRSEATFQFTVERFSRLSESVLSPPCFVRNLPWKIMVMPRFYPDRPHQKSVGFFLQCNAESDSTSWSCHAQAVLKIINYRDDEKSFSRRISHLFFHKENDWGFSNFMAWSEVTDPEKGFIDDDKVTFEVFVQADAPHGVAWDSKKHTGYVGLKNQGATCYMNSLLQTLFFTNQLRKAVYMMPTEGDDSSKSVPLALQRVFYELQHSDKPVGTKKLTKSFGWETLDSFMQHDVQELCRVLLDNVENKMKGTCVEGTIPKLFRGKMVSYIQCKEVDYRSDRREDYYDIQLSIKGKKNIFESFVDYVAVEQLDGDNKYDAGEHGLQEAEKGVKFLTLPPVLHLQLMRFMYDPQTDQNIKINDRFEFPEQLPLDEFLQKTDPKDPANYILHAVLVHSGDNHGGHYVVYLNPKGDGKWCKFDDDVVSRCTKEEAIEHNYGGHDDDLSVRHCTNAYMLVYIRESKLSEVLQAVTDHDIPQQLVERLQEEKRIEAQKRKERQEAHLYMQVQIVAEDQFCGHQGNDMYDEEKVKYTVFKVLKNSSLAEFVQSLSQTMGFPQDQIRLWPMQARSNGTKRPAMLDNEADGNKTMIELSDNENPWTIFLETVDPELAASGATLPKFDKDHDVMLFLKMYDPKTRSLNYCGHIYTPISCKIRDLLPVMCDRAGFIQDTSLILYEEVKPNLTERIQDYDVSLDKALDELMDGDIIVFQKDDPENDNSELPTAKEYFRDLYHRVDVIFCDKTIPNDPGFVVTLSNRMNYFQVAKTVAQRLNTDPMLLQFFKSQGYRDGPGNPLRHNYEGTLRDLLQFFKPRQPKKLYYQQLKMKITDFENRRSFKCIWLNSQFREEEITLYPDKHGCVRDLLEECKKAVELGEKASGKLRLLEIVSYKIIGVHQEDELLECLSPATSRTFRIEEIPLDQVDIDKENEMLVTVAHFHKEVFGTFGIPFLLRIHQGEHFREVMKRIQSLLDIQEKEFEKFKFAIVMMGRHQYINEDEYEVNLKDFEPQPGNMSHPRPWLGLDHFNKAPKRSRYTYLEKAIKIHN

Row | SMILES | IC50 [nM]
1 | N#Cc1cc2c(c(-c3ccnc4cc(CO)sc34)c1)OC(C(=O)N1CCNCC1)C2 (stereo in doubt) [(R)-7-(2-(hydroxymethyl)thieno[3,2-b]pyridin-7-yl)-2-(piperazine-1-carbonyl)-2,3-dihydrobenzofuran-5-carbonitrile] | 1000 to 10000
2 | O=C(C1Cc2cc(Cl)cc(-c3ccnc4[nH]c(Cc5cc6ccccc6cn5)cc34)c2O1)N1CCNCC1 (stereo not shown) [(5-chloro-7-(2-(isoquinolin-3-ylmethyl)-1H-pyrrolo[2,3-b]pyridin-4-yl)-2,3-dihydrobenzofuran-2-yl)(piperazin-1-yl)methanone] | 1000 to 10000
3 | O=C(C1Cc2cc(Cl)cc(-c3ccnc4[nH]ccc34)c2O1)N1CCC(O)(c2ccccc2)CC1 (stereo not shown) [(5-chloro-7-(1H-pyrrolo[2,3-b]pyridin-4-yl)-2,3-dihydrobenzofuran-2-yl)(4-hydroxy-4-phenylpiperidin-1-yl)methanone] | 1000 to 10000
4 | CCC(NC(C)=O)c1cc2nccc(-c3cc(Cl)cc4c3O[C@@H](C(=O)N3CCNCC3)C4)c2s1 (stereo partly drawn) [N-(1-(7-((R)-5-chloro-2-(piperazine-1-carbonyl)-2,3-dihydrobenzofuran-7-yl)thieno[3,2-b]pyridin-2-yl)propyl)acetamide] | < 1000
5 | O=C(C1Cc2cc(Cl)cc(-c3ccnc4[nH]ccc34)c2O1)N1CCC2(CC1)CNC2 (stereo not shown) [(5-chloro-7-(1H-pyrrolo[2,3-b]pyridin-4-yl)-2,3-dihydrobenzofuran-2-yl)(2,7-diazaspiro[3.5]nonan-7-yl)methanone] | 1000 to 10000
6 | CNCCNC(=O)[C@H]1Cc2cc(Cl)cc(-c3ccnc4cc(CO)sc34)c2O1 [(R)-5-chloro-7-(2-(hydroxymethyl)thieno[3,2-b]pyridin-7-yl)-N-(2-(methylamino)ethyl)-2,3-dihydrobenzofuran-2-carboxamide] | < 1000
7 | CC(O)Cc1cc2nccc(-c3cc(Cl)cc4c3O[C@@H](C(=O)N3CCNCC3)C4)c2s1 (stereo partly drawn) [((2R)-5-chloro-7-(2-(2-hydroxypropyl)thieno[3,2-b]pyridin-7-yl)-2,3-dihydrobenzofuran-2-yl)(piperazin-1-yl)methanone] | < 1000
8 | Clc1cc2c(c(-c3ncnc4ccoc34)c1)O[C@@H](c1onc3c1CNCC3)C2 [(R)-3-(5-chloro-7-(furo[3,2-d]pyrimidin-4-yl)-2,3-dihydrobenzofuran-2-yl)-4,5,6,7-tetrahydroisoxazolo[4,3-c]pyridine] | < 1000
9 | CCC(O)c1cc2nccc(-c3cc(Cl)cc4c3OC(CN3CCNCC3)C4)c2s1 (stereo not shown) [1-(7-(5-chloro-2-(piperazin-1-ylmethyl)-2,3-dihydrobenzofuran-7-yl)thieno[3,2-b]pyridin-2-yl)propan-1-ol] | 10000 to 30000
10 | O=C([C@H]1Cc2cc(Cl)cc(-c3ccnc4[nH]ccc34)c2O1)N1CCNCC1 [(R)-(5-chloro-7-(1H-pyrrolo[2,3-b]pyridin-4-yl)-2,3-dihydrobenzofuran-2-yl)(piperazin-1-yl)methanone] | < 1000
11 | O=C(C1Cc2cc(Cl)c(F)c(-c3ccnc4[nH]ccc34)c2O1)N1CCNCC1 (stereo not shown) | 10000 to 30000
12 | CCC1(CC)Cc2nccc(-c3cc(Cl)cc4c3O[C@@H](c3onc5c3CNCC5)C4)c2C1 [(R)-3-(5-chloro-7-(6,6-diethyl-6,7-dihydro-5H-cyclopenta[b]pyridin-4-yl)-2,3-dihydrobenzofuran-2-yl)-4,5,6,7-tetrahydroisoxazolo[4,3-c]pyridine] | 1000 to 10000
13 | CCC(O)c1cc2nccc(-c3cc(Cl)cc4c3O[C@@H](c3ocnc3CNCCO)C4)c2s1 (stereo partly drawn) [1-(7-((R)-5-chloro-2-(4-(((2-hydroxyethyl)amino)methyl)oxazol-5-yl)-2,3-dihydrobenzofuran-7-yl)thieno[3,2-b]pyridin-2-yl)propan-1-ol] | < 1000
14 | CN1CCC(N2CCN(C(=O)C3Cc4cc(Cl)cc(-c5ccnc6[nH]ccc56)c4O3)CC2)CC1 (stereo not shown) [(5-chloro-7-(1H-pyrrolo[2,3-b]pyridin-4-yl)-2,3-dihydrobenzofuran-2-yl)(4-(1-methylpiperidin-4-yl)piperazin-1-yl)methanone] | 10000 to 30000
15 | CC1(CO)Cc2nccc(-c3cc(Cl)cc4c3O[C@@H](C(=O)N3CCNCC3)C4)c2C1 (stereo partly drawn) [((2R)-5-chloro-7-(6-(hydroxymethyl)-6-methyl-6,7-dihydro-5H-cyclopenta[b]pyridin-4-yl)-2,3-dihydrobenzofuran-2-yl)(piperazin-1-yl)methanone] | < 1000
16 | O=C([C@H]1Cc2cc(Cl)cc(-c3ccnc4cc(C5(O)COC5)sc34)c2O1)N1CCNCC1 [(R)-(5-chloro-7-(2-(3-hydroxyoxetan-3-yl)thieno[3,2-b]pyridin-7-yl)-2,3-dihydrobenzofuran-2-yl)(piperazin-1-yl)methanone] | < 1000
17 | O=C1OCCN1Cc1cc2nccc(-c3cc(Cl)cc4c3O[C@@H](C(=O)N3CCNCC3)C4)c2s1 [(R)-3-((7-(5-chloro-2-(piperazine-1-carbonyl)-2,3-dihydrobenzofuran-7-yl)thieno[3,2-b]pyridin-2-yl)methyl)oxazolidin-2-one] | < 1000
18 | O=C(C1Cc2cc(Cl)cc(-c3ccnc(Nc4ccccc4)c3)c2O1)N1CCNCC1 (stereo not shown) [(5-chloro-7-(2-(phenylamino)pyridin-4-yl)-2,3-dihydrobenzofuran-2-yl)(piperazin-1-yl)methanone] | 10000 to 30000
19 | CCC(O)c1cc2ncnc(-c3cc(Cl)cc4c3O[C@@H](c3onc5c3CNCC5)C4)c2o1 (stereo partly drawn) [1-(4-((R)-5-chloro-2-(4,5,6,7-tetrahydroisoxazolo[4,3-c]pyridin-3-yl)-2,3-dihydrobenzofuran-7-yl)furo[3,2-d]pyrimidin-6-yl)propan-1-ol] | 1000 to 10000
20 | CN(C)C1CCN(C(=O)C2Cc3cc(Cl)cc(-c4ccnc5[nH]ccc45)c3O2)CC1 (stereo not shown) [(5-chloro-7-(1H-pyrrolo[2,3-b]pyridin-4-yl)-2,3-dihydrobenzofuran-2-yl)(4-(dimethylamino)piperidin-1-yl)methanone] | 1000 to 10000

Further lines, results first:

Row | IC50 [nM] | SMILES
21 | < 1000 | CCC(O)c1cc2nccc(-c3cc(Cl)cc4c3O[C@@H](c3onc5c3CNCC5)C4)c2s1 (stereo partly drawn) [drawing 1523, 1-(7-((R)-5-chloro-2-(4,5,6,7-tetrahydroisoxazolo[4,3-c]pyridin-3-yl)-2,3-dihydrobenzofuran-7-yl)thieno[3,2-b]pyridin-2-yl)propan-1-ol]
22 | < 1000 | CN(C)[C@@H]1CCc2noc([C@H]3Cc4cc(Cl)cc(-c5ccnc6cc(CO)sc56)c4O3)c2C1 [(7-((R)-5-chloro-2-((R)-5-(dimethylamino)-4,5,6,7-tetrahydrobenzo[c]isoxazol-3-yl)-2,3-dihydrobenzofuran-7-yl)thieno[3,2-b]pyridin-2-yl)methanol]
23 | < 1000 | Cc1cc2nccc(-c3cc(Cl)cc4c3O[C@@H](c3onc5c3CNCC5)C4)c2s1 [(R)-3-(5-chloro-7-(2-methylthieno[3,2-b]pyridin-7-yl)-2,3-dihydrobenzofuran-2-yl)-4,5,6,7-tetrahydroisoxazolo[4,3-c]pyridine]
24 | < 1000 | OC1(c2cc3nccc(-c4cc(Cl)cc5c4O[C@@H](c4onc6c4CNCC6)C5)c3s2)CCC1 [(R)-1-(7-(5-chloro-2-(4,5,6,7-tetrahydroisoxazolo[4,3-c]pyridin-3-yl)-2,3-dihydrobenzofuran-7-yl)thieno[3,2-b]pyridin-2-yl)cyclobutan-1-ol]
25 | < 1000 | O=C([C@H]1Cc2cc(Cl)cc(-c3ccnc4cc(CO)sc34)c2O1)N1CCNCC1 [(R)-(5-chloro-7-(2-(hydroxymethyl)thieno[3,2-b]pyridin-7-yl)-2,3-dihydrobenzofuran-2-yl)(piperazin-1-yl)methanone]
26 | < 1000 | Cn1nc2c(c1[C@H]1Cc3cc(Cl)cc(-c4ccnc5cc(CO)sc45)c3O1)CC(N1CCC1)CC2 (stereo partly drawn) [(7-((2R)-2-(5-(azetidin-1-yl)-2-methyl-4,5,6,7-tetrahydro-2H-indazol-3-yl)-5-chloro-2,3-dihydrobenzofuran-7-yl)thieno[3,2-b]pyridin-2-yl)methanol]
27 | < 1000 | OCC(O)(CCl)c1cc2nccc(-c3cc(Cl)cc4c3O[C@@H](c3onc5c3CNCC5)C4)c2s1 (stereo partly drawn) [3-chloro-2-(7-((R)-5-chloro-2-(4,5,6,7-tetrahydroisoxazolo[4,3-c]pyridin-3-yl)-2,3-dihydrobenzofuran-7-yl)thieno[3,2-b]pyridin-2-yl)propane-1,2-diol]
28 | < 1000 | CCC(O)c1cc2nccc(-c3cc(Cl)cc4c3O[C@@H](c3onc5c3CNCC5)C4)c2s1 (stereo partly drawn) [drawing 1570, 1-(7-((R)-5-chloro-2-(4,5,6,7-tetrahydroisoxazolo[4,3-c]pyridin-3-yl)-2,3-dihydrobenzofuran-7-yl)thieno[3,2-b]pyridin-2-yl)propan-1-ol]
29 | < 1000 | CCN1CCc2noc([C@H]3Cc4cc(Cl)cc(-c5ccnc6cc(CO)sc56)c4O3)c2C1 [(R)-(7-(5-chloro-2-(5-ethyl-4,5,6,7-tetrahydroisoxazolo[4,3-c]pyridin-3-yl)-2,3-dihydrobenzofuran-7-yl)thieno[3,2-b]pyridin-2-yl)methanol]
30 | < 1000 | OCc1cc2ncnc(-c3cc(Cl)cc4c3O[C@@H](c3onc5c3CNCC5)C4)c2s1 [(R)-(4-(5-chloro-2-(4,5,6,7-tetrahydroisoxazolo[4,3-c]pyridin-3-yl)-2,3-dihydrobenzofuran-7-yl)thieno[3,2-d]pyrimidin-6-yl)methanol]
31 | 1000 to 10000 | CS(=O)(=O)c1ccc2c(-c3cc(Cl)cc4c3O[C@@H](c3onc5c3CNCC5)C4)ccnc2c1 [(R)-3-(5-chloro-7-(7-(methylsulfonyl)quinolin-4-yl)-2,3-dihydrobenzofuran-2-yl)-4,5,6,7-tetrahydroisoxazolo[4,3-c]pyridine]
32 | < 1000 | CS(=O)(=O)NCc1cc2nccc(-c3cc(Cl)cc4c3O[C@@H](c3onc5c3CNCC5)C4)c2s1 [(R)-N-((7-(5-chloro-2-(4,5,6,7-tetrahydroisoxazolo[4,3-c]pyridin-3-yl)-2,3-dihydrobenzofuran-7-yl)thieno[3,2-b]pyridin-2-yl)methyl)methanesulfonamide]
33 | < 1000 | Clc1cc2c(c(-c3ccnc4[nH]ccc34)c1)OC(c1onc3c1CNCC3)C2 (stereo not shown) [3-(5-chloro-7-(1H-pyrrolo[2,3-b]pyridin-4-yl)-2,3-dihydrobenzofuran-2-yl)-4,5,6,7-tetrahydroisoxazolo[4,3-c]pyridine]
34 | 1000 to 10000 | OC1(c2cc3nccc(-c4cc(Cl)cc5c4O[C@@H](c4onc6c4CNCC6)C5)c3s2)CNC1 [(R)-3-(7-(5-chloro-2-(4,5,6,7-tetrahydroisoxazolo[4,3-c]pyridin-3-yl)-2,3-dihydrobenzofuran-7-yl)thieno[3,2-b]pyridin-2-yl)azetidin-3-ol]
